Test results published in PubChem BioAssay (NCI).
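96-well plates; 48 h exposure; 5 concentrations. Endpoints by linear interpolation between flanking doses. Not reached: highest tested concentration assigned. TGI: concentration producing complete growth inhibition.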

How the values were obtained:
Assay in all cases: NCI tumour cell line growth inhibition, 48 h
SF-539 CNS = test system: SF-539 CNS
MALME-3M melanoma = test system: MALME-3M melanoma
SF-295 CNS = test system: SF-295 CNS
MDA-MB-435 = test system: MDA-MB-435
RXF 393 renal = test system: RXF 393 renal
HCT-15 colon = test system: HCT-15 colon
CAKI-1 renal = test system: CAKI-1 renal
NCI-H460 lung = test system: NCI-H460 lung
UACC-62 melanoma = test system: UACC-62 melanoma
SNB-75 CNS = test system: SNB-75 CNS
OVCAR-3 ovarian = test system: OVCAR-3 ovarian
COLO 205 colon = test system: COLO 205 colon
SK-MEL-28 melanoma = test system: SK-MEL-28 melanoma
NCI/ADR-RES ovarian = test system: NCI/ADR-RES ovarian
KM12 colon = test system: KM12 colon
SK-OV-3 ovarian = test system: SK-OV-3 ovarian
786-0 renal = test system: 786-0 renal
K-562 leukemia = test system: K-562 leukemia
NCI-H522 lung = test system: NCI-H522 lung
SW-620 colon = test system: SW-620 colon
UO-31 renal = test system: UO-31 renal
CCRF-CEM leukemia = test system: CCRF-CEM leukemia
SF-268 CNS = test system: SF-268 CNS
UACC-257 melanoma = test system: UACC-257 melanoma
SK-MEL-5 melanoma = test system: SK-MEL-5 melanoma
HCC-2998 colon = test system: HCC-2998 colon
MCF7 breast = test system: MCF7 breast
NCI-H23 lung = test system: NCI-H23 lung
NCI-H226 lung = test system: NCI-H226 lung
OVCAR-4 ovarian = test system: OVCAR-4 ovarian
MDA-N = test system: MDA-N
HOP-62 NSCLC = test system: HOP-62 NSCLC
SNB-19 CNS = test system: SNB-19 CNS
IGROV1 ovarian = test system: IGROV1 ovarian
BT-549 breast = test system: BT-549 breast
A498 renal = test system: A498 renal
SK-MEL-2 melanoma = test system: SK-MEL-2 melanoma
MOLT-4 leukemia = test system: MOLT-4 leukemia
EKVX NSCLC = test system: EKVX NSCLC
HS 578T breast = test system: HS 578T breast
DU-145 prostate = test system: DU-145 prostate
T-47D breast = test system: T-47D breast
SR leukemia = test system: SR leukemia
PC-3 prostate = test system: PC-3 prostate
MDA-MB-231 breast = test system: MDA-MB-231 breast
OVCAR-8 ovarian = test system: OVCAR-8 ovarian
HOP-92 NSCLC = test system: HOP-92 NSCLC
ACHN renal = test system: ACHN renal
HT29 colon = test system: HT29 colon
TK-10 renal = test system: TK-10 renal
M14 melanoma = test system: M14 melanoma
OVCAR-5 ovarian = test system: OVCAR-5 ovarian
A549 NSCLC = test system: A549 NSCLC
LOX IMVI melanoma = test system: LOX IMVI melanoma
HL-60(TB) leukemia = test system: HL-60(TB) leukemia
SN12C renal = test system: SN12C renal
U251 CNS = test system: U251 CNS
HCT-116 colon = test system: HCT-116 colon
RPMI-8226 leukemia = test system: RPMI-8226 leukemia

Cc1ccc(NCCN(C)C)c2c(=O)c3cc(O)ccc3oc12
TGI (SF-539 CNS): 20.5 µM
TGI (MALME-3M melanoma): 27.3 µM
TGI (SF-295 CNS): 23 µM
TGI (MDA-MB-435): 24.4 µM
TGI (RXF 393 renal): 24.4 µM
TGI (HCT-15 colon): 21.2 µM
TGI (CAKI-1 renal): 22.9 µM
TGI (NCI-H460 lung): 15 µM
TGI (UACC-62 melanoma): 23 µM
TGI (SNB-75 CNS): 16 µM
TGI (OVCAR-3 ovarian): 30.8 µM
TGI (COLO 205 colon): 24.2 µM
TGI (SK-MEL-28 melanoma): 28.4 µM
TGI (NCI/ADR-RES ovarian): 24.3 µM
TGI (KM12 colon): 25 µM
TGI (SK-OV-3 ovarian): 26.4 µM
TGI (786-0 renal): 18.3 µM
TGI (K-562 leukemia): 12.3 µM
TGI (NCI-H522 lung): 21.7 µM
TGI (SW-620 colon): 17 µM
TGI (UO-31 renal): 22.1 µM
TGI (CCRF-CEM leukemia): 16 µM
TGI (SF-268 CNS): 17.7 µM
TGI (UACC-257 melanoma): 32.7 µM
TGI (SK-MEL-5 melanoma): 24 µM
TGI (HCC-2998 colon): 24.3 µM
TGI (MCF7 breast): 19.6 µM
TGI (NCI-H23 lung): 25.6 µM
TGI (NCI-H226 lung): 29.5 µM
TGI (OVCAR-4 ovarian): 31.3 µM
TGI (MDA-N): 23 µM
TGI (HOP-62 NSCLC): 23.3 µM
TGI (SNB-19 CNS): 23.7 µM
TGI (IGROV1 ovarian): 24.9 µM
TGI (BT-549 breast): 30.6 µM
TGI (A498 renal): 28.2 µM
TGI (SK-MEL-2 melanoma): 35.4 µM
TGI (MOLT-4 leukemia): 11.7 µM
TGI (EKVX NSCLC): 29.2 µM
TGI (HS 578T breast): 19.9 µM
TGI (DU-145 prostate): 28.3 µM
TGI (T-47D breast): 31.5 µM
TGI (SR leukemia): 3.35 µM
TGI (PC-3 prostate): 24.2 µM
TGI (MDA-MB-231 breast): 22.2 µM
TGI (OVCAR-8 ovarian): 19.7 µM
TGI (HOP-92 NSCLC): 23.4 µM
TGI (ACHN renal): 17.6 µM
TGI (HT29 colon): 23.7 µM
TGI (TK-10 renal): 27.9 µM
TGI (M14 melanoma): 25.3 µM
TGI (OVCAR-5 ovarian): 29.1 µM
TGI (A549 NSCLC): 20.9 µM
TGI (LOX IMVI melanoma): 22.2 µM
TGI (HL-60(TB) leukemia): 19.4 µM
TGI (SN12C renal): 20.2 µM
TGI (U251 CNS): 21 µM
TGI (HCT-116 colon): 17.2 µM
TGI (RPMI-8226 leukemia): 34.3 µM

Cc1cc(C)c([S@@](=O)O[C@@H]2[C@H]3OC(C)(C)O[C@H]3O[C@@H]2[C@H]2COC(C)(C)O2)c(C)c1
TGI (SF-539 CNS): 39.5 µM
TGI (MALME-3M melanoma): 80.1 µM
TGI (SF-295 CNS): > 100 µM
TGI (MDA-MB-435): 40.2 µM
TGI (RXF 393 renal): 36.3 µM
TGI (HCT-15 colon): > 100 µM
TGI (CAKI-1 renal): 9.11 µM
TGI (NCI-H460 lung): 62.9 µM
TGI (UACC-62 melanoma): 51.6 µM
TGI (SNB-75 CNS): 59.6 µM
TGI (OVCAR-3 ovarian): 41.6 µM
TGI (COLO 205 colon): 38.9 µM
TGI (SK-MEL-28 melanoma): 90.5 µM
TGI (NCI/ADR-RES ovarian): 57 µM
TGI (KM12 colon): 40.2 µM
TGI (SK-OV-3 ovarian): > 100 µM
TGI (786-0 renal): 64.6 µM
TGI (K-562 leukemia): 76.8 µM
TGI (NCI-H522 lung): 24.1 µM
TGI (SW-620 colon): 49.3 µM
TGI (UO-31 renal): 33.2 µM
TGI (CCRF-CEM leukemia): 88.7 µM
TGI (SF-268 CNS): 95.3 µM
TGI (UACC-257 melanoma): 46.2 µM
TGI (SK-MEL-5 melanoma): 97.9 µM
TGI (HCC-2998 colon): 41.7 µM
TGI (MCF7 breast): 57.9 µM
TGI (NCI-H23 lung): 89.5 µM
TGI (NCI-H226 lung): 53.2 µM
TGI (OVCAR-4 ovarian): 42.8 µM
TGI (MDA-N): 65.4 µM
TGI (HOP-62 NSCLC): 51.3 µM
TGI (SNB-19 CNS): > 100 µM
TGI (IGROV1 ovarian): 18 µM
TGI (BT-549 breast): 30.6 µM
TGI (A498 renal): 47.2 µM
TGI (SK-MEL-2 melanoma): 86.1 µM
TGI (MOLT-4 leukemia): 43.3 µM
TGI (EKVX NSCLC): 61.2 µM
TGI (HS 578T breast): > 100 µM
TGI (DU-145 prostate): 89.2 µM
TGI (T-47D breast): > 100 µM
TGI (SR leukemia): 49 µM
TGI (PC-3 prostate): 41.2 µM
TGI (MDA-MB-231 breast): 60.5 µM
TGI (OVCAR-8 ovarian): 37.6 µM
TGI (HOP-92 NSCLC): 38.4 µM
TGI (ACHN renal): 33.5 µM
TGI (HT29 colon): 85.7 µM
TGI (TK-10 renal): 59.7 µM
TGI (M14 melanoma): 59.4 µM
TGI (OVCAR-5 ovarian): 83.9 µM
TGI (A549 NSCLC): > 100 µM
TGI (LOX IMVI melanoma): 30.1 µM
TGI (HL-60(TB) leukemia): 28.7 µM
TGI (SN12C renal): 42.7 µM
TGI (U251 CNS): 44.1 µM
TGI (HCT-116 colon): 57 µM
TGI (RPMI-8226 leukemia): 50.5 µM
